Test results from paper PMC12679848, “Sulphonamide derivatives with a triazine core as novel inducers of apoptosis and pyroptosis in glioblastoma multiforme cells” (Journal of Enzyme Inhibition and Medicinal Chemistry, 2025).

Columns and labels:
[1] = test system: U-87 MG; assay: Reactive oxygen species, H2DCFDA/DAPI staining, U-87 MG; type: cell-based, human; conditions: 30 min of compound treatment
Description: We performed double staining with DAPI, which stains nuclear genetic material (blue fluorescence), and H2DCFDA, an indicator of oxidative stress (green fluorescence). This study allowed us to evaluate the ability of MM118 and MM119 to activate reactive oxygen species (ROS) in A172 and U-87 MG glial cells.
The impact of the tested compounds on reactive oxygen species (ROS) production was assessed. Cells were seeded in 6-well culture plates at a density of 1 × 10^5 cells per well in 1 ml of medium. Following a 30-min treatment with the compounds, cells were washed with phosphate-buffered saline (PBS). Subsequently, double staining was performed using 20 µM 2′,7′-dichlorodihydrofluorescein diacetate (H2DCFDA) (obtained from Thermo Fisher Scientific, Eugene, OR, USA). This colourless reagent is hydrolysed by intracellular esterases and subsequently oxidised to the 2′,7′-dichlorofluorescein (DCF), and 10 µg/mL of 4′,6-diamidino-2-phenylindole (DAPI) (Sigma-Aldrich, St. Louis, MO, USA) was used to stain nuclear DNA. Fluorescence was observed using a Nikon ECLIPSE Ti fluorescence microscope (Nikon, Tokyo, Japan). ImageJ software (Bethesda, MD, USA) was used for data analysis, with DCF fluorescence intensity measured relative to the control. A minimum of 100 cells per sample were analysed.

[2] = test system: A172 xenografts; assay: Zebrafish xenograft, A172; type: in vivo; conditions: 10 µM, 48 h, 0.1% DMSO control 4%
Description: (§1) In our study, we used wild-type AB zebrafish embryos obtained from the certified Experimental Medicine Centre (Lublin, Poland). Adult zebrafish were raised at 28.5 °C under 14 h of light and 10 h of the dark cycle and fed in accordance with the guidelines established by the Research Animals Department of the RSPCA. Fertilised eggs were obtained by natural spawning; healthy clutches were processed for study or propagated for line maintenance. Embryos were maintained in the E3 medium (5 mM NaCl, 0.33 mM MgCl2, 0.33 mM CaCl2, 0.17 mM KCl; pH 7.2) at 28.5 °C. The use of animals in scientific research in Europe is governed by the Directive 2010/63/EU of 22 September 2010. […] All procedures in this study were performed on embryos up to 5 dpf.
(§2) A172 and U-87MG cell lines were labelled with Vybrant Did (Invitrogen, Waltham, MA, USA) according to the manufacturer’s protocol. Stained cells were re-suspended in Dulbecco’s modified Eagle’s medium (DMEM) at the final concentration of 1 × 10^7 cells/mL. 24 h post-fertilisation (hpf) zebrafish were manually dechorionated. […]
(§3) Xenograft imaging has been performed before (48 hpf) and after (120 hpf) drugs treatment using an EVOS M5000 Imaging System with the filter Cy5 (excitation: 628 nm; emission: 692 nm). […] Tumour sizes were analysed as the area of labelled tumour cells according Ali et al.[18] using EVOS software.

[3] = test system: U-87MG xenografts; assay: Zebrafish xenograft, U-87 MG; type: in vivo; conditions: U-87 MG zebrafish xenografts, 10 µM, 48 h; 0.1% DMSO control 22%
Description: as §1, §2, §3

| SMILES | ROS, mean green (DCF) fluorescence [1] | average tumour size reduction [2] [%] | tumour size reduction [3] [%] |
| --- | --- | --- | --- |
| CCC(CO)NS(=O)(=O)c1ccc(-n2nc(C)c3nc4nnnn4nc32)cc1 (stereo in doubt) [MM119, N-(S)-(1-hydroxy-but-2-yl)-4-[7-methyl-5H-pyrazolo[4,3-e]tetrazolo[1,5-b][1]^,[2]^,[4]triazin-5-yl)]benzenesulfonamide] | effectively induce oxidative stress | 56 | 56 |
| CCC(CO)NS(=O)(=O)c1ccc(-n2nc(C)c3nc4nnnn4nc32)cc1 (stereo in doubt) [MM118, N-(R)-(1-hydroxy-but-2-yl)-4-[7-methyl-5H-pyrazolo[4,3-e]tetrazolo[1,5-b][1]^,[2]^,[4]triazin-5-yl)]benzenesulfonamide] | effectively induce oxidative stress | 55 | 51 |
